This note sets out measurements from patent publication US20230312587A1, “PTERIDINONE COMPOUNDS AND USES THEREOF” (Vertex Pharmaceutical Incorporated, priority 2018, published 2023).

pEC50, pIC50, pKi: −log10 of the molar value.

Experiment [1] concerns the target Plk1 (Homo sapiens (Human), UniProt P53350). The experiment can be described thus: PLK1 inhibition assay (radioactive-phosphate incorporation). Conditions: Ki(app), read-out: PLK1 - 33P.ENZ - CB 10 Ki. It is filed as biochemical. As to the method: Compounds were screened for their ability to inhibit Plk1 using a radioactive-phosphate incorporation assay. Assays were carried out in a mixture of 25 mM HEPES (pH 7.5), 10 mM MgCl2, 25 mM NaCl, and 2 mM DTT. Final substrate concentrations were 20 μM [γ-33P]ATP (35mCi 33P ATP/mmol ATP, Perkin Elmer/Sigma Chemicals) and 9 uM Sam68 protein. Assays were carried out at room temperature in the presence of 15 nM Plk1. An assay stock buffer solution was prepared containing all of the reagents listed above, with the exception of ATP and the test compound of interest. 0.75 μL of DMSO stock containing serial dilutions of the test compound (typically starting from a final concentration of 10 μM with 2-fold serial dilutions—final DMSO concentration 1.5%) was placed in a 384 well plate followed by addition of 25 μL [γ-33P]ATP (final concentration 20 μM). The reaction was initiated by addition of 25 μL of the assay stock buffer solution.
The reaction was stopped after 45 minutes by the addition of 25 μL 30% trichloroacetic acid (TCA) containing 10 mM cold ATP. The entire quenched reaction was transferred to a 384-well glass fiber filter plate (Millipore, Cat no. MZFBNOW50). The plate was washed with 3×5% TCA. After drying, 40 μL of Ultima Gold liquid scintillation cocktail (Perkin Elmer) was added to the well prior to scintillation counting in a PerkinElmer TopCount.
After removing mean background values for all of the data points, Ki(app) data were calculated from non-linear regression analysis of the initial rate data using the Prism software package (GraphPad Prism, GraphPad Software, San Diego California, USA).

Experiment [2] relates to β-catenin-TCF-mediated reporter transcription activity in Colo 205 cells. The experiment can be described thus: Colo 205 reporter assay (TCF/LEF luciferase). It is filed as cell-based. Conditions: Homo sapiens, COLO 205, 5 h, Colo 205 TCF/LEF luciferase reporter, five hours after addition of compound; read-out: TCF reporter Colo205 IC50. Summed up: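 Luciferase signal from a TCF/LEF-driven reporter, stably integrated in Colo 205 colon cancer cells, was measured 5 h after compound addition.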
In general terms: A reporter such as luciferase makes a cellular process visible.

In experiment [3] the test system is HepG2 XBP1(u)-Luc cells. Description: HepG2 XBP1 reporter assay. It is filed as cell-based. Particulars: Homo sapiens, 6 h. How it is done: HepG2 hepatoma cells were transduced with a retrovirus encoding the cDNA for unspliced (u) XBP1, which contains a non-processed intron, fused to the cDNA for firefly luciferase. Upon induction of ER stress, the non-processed intron of XBP1(u) is spliced out by active IRE1alpha endonuclease. The resulting spliced (s) XBP1 is now in frame with luciferase which causes the production of active luciferase protein, resulting in bioluminescence
HepG2 XBP1(u)-Luc cells were plated […] Cultured cells with a stably transfected reporter construct were plated at approximately 30,000 cells per well into 96 well multi-well plates for twenty four hours. The testing compounds were then added to the wells in 3-fold serial dilutions using a twenty seven micromolar top concentration. A series of control wells for each cell type received only compound solvent. Six hours after the addition of compound, reporter activity for luciferase was assayed, by addition of the SteadyGlo luminescence reagent (Promega). The reporter luminescence activity was measured using Pherastar plate reader (BMG Labtech). Readings was normalized to DMSO only treated cells, and normalized activities were then used in the IC50 calculations. The HepG2 XBP1 reporter assay data are summarized in Table 47: A<0.6 μM; 0.6 μM≤B<2.0 μM; 2.0 μM≤C<10.0 μM; D≥10.0 μM.

Experiment [4] deals with Colo-205 cells. Description: Calcium flux assay (FLIPR Calcium 5). Particulars: Homo sapiens, COLO 205, 0.6 h, FLIPR Calcium 5, measured over 36 minutes. The experiment is classed as cell-based. How it is done:
Compounds described herein induced ER stress by causing intracellular calcium flux. Calcium flux was measured in Colo-205 cells using the FLTPR® Calcium 5 Assay Kit according to manufacter's protocol (Molecular Devices, Cat. #R8186) on a FLIPR3 system (Molecular Devices). Calcium flux is measured over 36 minutes. The Colo-205 calcium flux assay data are summarized in Table 47: A<0.6 μM; 0.6 μM≤B<2.0 μM; 2.0 μM≤C<10.0 μM; D≥10.0 μM.
Background: Calcium assays in cells follow changes in intracellular calcium, usually with a dye or a luminescent sensor.

Experiment [5] deals with HEK293 membranes over-expressing WFS-1 (Homo sapiens (Human), UniProt O76024). The experiment can be described thus: Radioligand displacement assay (tritiated Compound 136 probe). It is filed as binding. Particulars: displacement of tritiated Compound 136. As to the method: Cell pellets were re-suspended in 15 times packed cellular volume in 4° C. hypotonic lysis buffer (10 mM HEPES, pH 7.5 containing 1×Protease inhibitor, 0.5 mM EDTA and 2 mM DTT). Re-suspended cells were homogenized with 6-8 strokes in a dounce homogenizer kept on ice. Lysates were centrifuged at 500×G for 15 minutes at 4° C. without brake to decelerate rotor. Following centrifugation, remove the supernatant to a fresh tube and place on ice (Supernatant 1). Repeat the above steps on the lysed cell pellet using 0.5 the original volume of hypotonic lysis buffer and remove the 500× G supernatant (Supernatant 2) and combine with Supernatant 1. Transfer the combined supernatants to a 45-Ti ultracentrifuge tube and centrifuge at 100,000× G for 30 minutes. Following ultracentrifugation, carefully remove the supernatant and discard. Resuspend the 100,000× G pellet in cold resuspension buffer (10 mM HEPES, pH 7.5, 300 mM NaCl containing 1× Protease inhibitor, 1× EDTA and 2 mM DTT). Centrifuge sample at 500× G for 10 minutes with no brake and remove any cloudy, flocculent material. Resuspend pellet in resuspension buffer to approximately 2 mg/mL of protein concentration for use in radioligand binding assay and immunoblotting.
The binding affinities of compounds were determined by measuring the competitive displacement of a tritiated Compound 136 probe from purified HEK293 membranes over-expressing WFS-1. The data for the radioligand displacement assay are summarized in Table 47: A<0.06 μM; 0.06 μM≤B<0.6 μM; 0.6 μM≤C<3.0 μM; D≥3.0 μM.
The probe Kd was determined by titrating tritiated probe under the standard assay conditions plus and minus excess unlabeled probe and fitting the resulting data to a “One site—Total and nonspecific binding” model in Graphpad Prism, version 6.0, San Diego, CA, US. Initially, 0.25 μl of compound dissolved in DMSO at varying concentrations was dispensed to a 384 well plate. Membrane and probe were both prepared at 2× their final concentration in 1× assay buffer as described above. 25 μL of membrane was added to the wells and incubated for 10 minutes. 25 μL of diluted probe was then added to the wells. The assay was incubated for 90 minutes at room temperature. The entire assay volume was then transferred to Millipore GF/B 384-well plates pretreated with 15 μL 0.5% PEI. The filter plates were washed 3× with 75 μL 25 mM TRIS, ph7.5, 0.1% BSA and then dried overnight. Following addition of 45 μL UltimaGold scintillant, the samples were counted in a Perkin Elmer Topcount. The radioactivity remaining is a measure of bound probe. From the bound probe vs concentration of compound titration curve, the IC50 is determined by fitting the data to a standard 3 parameter IC50 model using either Graphpad Prism, version 6.0, San Diego, CA, US, or using GeneData Analyzer, Basel, Switzerland.

Experiment [6] concerns Colo205-TCF/LEF-Luciferase (Luc) tumor. The experiment can be described thus: In vivo inhibition of TCF/LEF reporter activity in Colo-205 tumors. Conditions: TCF/LEF luciferase reporter in Colo-205 tumors, nu/nu mice, oral gavage. The arrangement: concentration or dose not given beside the values. Summed up:
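Female nu/nu mice carried subcutaneous Colo205-TCF/LEF-luciferase tumours (200–500 mm^3), n=4 per group. Compound was given by oral gavage in 1:3:5:1 EtOH:DMSO:PEG-400:H2O at 10 ml/kg, with vehicle as control. Luciferase activity in tumour lysates (Steady-Glo) was normalised to BCA protein.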

In experiment [7] the test system is non-small cell lung cancer (NSCLC) adenocarcinoma line D33966. Description: In vivo efficacy, NSCLC patient derived xenograft OD33966. On the set-up: species or system nu/nu mice. Particulars: Mus musculus, 336 h; NSCLC PDX OD33966, oral, 100 mpk qd, treatment day 14; read-out: % TGI. As to the method:
Female immune deficient mice (Charles River, 4-6 wks age) were anesthetized with Ketamine-Xylazine (140 mg/kg-14 mg/kg ip) and shaved. Puralube eye ointment was applied to the eyes to prevent desiccation of the corneas. Betadine and 70% ethanol was applied to the shaved location to sterilize the skin at the location of the incision. The animals were placed in a biosafety cabinet for the duration of the surgery. Using scissors, an 8 to 10 mm incision was made in the lateral flank of the skin. A tumor fragment weighing between 50 and 150 mg was placed under the skin at the incision site using forceps, and staples were used to close the incision. The staples were removed 5 to 7 days after surgery. Starting approximately two weeks after implantation, animals were weighed, and tumors were measured using caliper twice weekly. Tumor volume was calculated using the formula: volume=length×width^2×0.52.
Compound administration began when xenografts reached approximately 100-300 mm3 and continued until control xenografts reached […] of the animal's body weight. Test compounds were administered orally by gastric gavage. Percent tumor growth inhibition (TG) was calculated on the indicated treatment day. Percent TGI is defined as: [1−(del T/del C)]×100%, where del T is the final minus initial average volumes of the treated group, and del C is the final minus initial average volumes of the control group. […] The tested compounds were administered orally. Vehicle control consisted of either 0.5% methylcellulose/0.1% sodium lauryl sulfate or 20% captisol. Tumor volumes were determined by caliper measurement twice a week.
(A xenograft is tissue or cells of one species grown in another, often human tumour cells in immunodeficient mice.)

Experiment [8] has as its system ER stress marker proteins XBP1(s) and ATF4. Description: ER stress marker immunoblot in parental HepG2 vs WFS1 KO cells. It is filed as cell-based. Conditions: 6 hours, immunoblotting. The source says:
(§1) In contrast WFS1 depletion had no effect on thapsigargin induced changes in global gene expression (FIG. 7.)

Experiment [9] deals with global gene expression in HepG2 cells. Description: Global gene expression changes in HepG2 vs WFS1 depleted cells. It is filed as cell-based. Conditions: HepG2, 6 hours of exposure.
Source text: as §1

Chain of Plk1 (P53350 whole entry, species assumed): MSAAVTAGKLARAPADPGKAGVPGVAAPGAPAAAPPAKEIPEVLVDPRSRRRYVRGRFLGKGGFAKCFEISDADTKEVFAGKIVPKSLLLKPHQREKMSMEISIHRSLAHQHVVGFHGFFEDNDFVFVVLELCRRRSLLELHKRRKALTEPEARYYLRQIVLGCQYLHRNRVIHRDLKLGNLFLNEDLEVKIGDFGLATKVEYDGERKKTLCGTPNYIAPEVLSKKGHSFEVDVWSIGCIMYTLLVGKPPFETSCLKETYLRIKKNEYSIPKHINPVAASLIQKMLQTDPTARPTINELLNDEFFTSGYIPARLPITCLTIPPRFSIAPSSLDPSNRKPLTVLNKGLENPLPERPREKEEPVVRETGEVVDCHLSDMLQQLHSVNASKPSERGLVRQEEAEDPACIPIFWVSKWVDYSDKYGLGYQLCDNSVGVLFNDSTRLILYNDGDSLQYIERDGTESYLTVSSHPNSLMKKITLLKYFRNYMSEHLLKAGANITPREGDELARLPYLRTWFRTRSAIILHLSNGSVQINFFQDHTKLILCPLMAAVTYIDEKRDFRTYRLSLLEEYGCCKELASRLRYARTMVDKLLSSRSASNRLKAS
Chain of HEK293 membranes over-expressing WFS-1 (O76024 whole entry): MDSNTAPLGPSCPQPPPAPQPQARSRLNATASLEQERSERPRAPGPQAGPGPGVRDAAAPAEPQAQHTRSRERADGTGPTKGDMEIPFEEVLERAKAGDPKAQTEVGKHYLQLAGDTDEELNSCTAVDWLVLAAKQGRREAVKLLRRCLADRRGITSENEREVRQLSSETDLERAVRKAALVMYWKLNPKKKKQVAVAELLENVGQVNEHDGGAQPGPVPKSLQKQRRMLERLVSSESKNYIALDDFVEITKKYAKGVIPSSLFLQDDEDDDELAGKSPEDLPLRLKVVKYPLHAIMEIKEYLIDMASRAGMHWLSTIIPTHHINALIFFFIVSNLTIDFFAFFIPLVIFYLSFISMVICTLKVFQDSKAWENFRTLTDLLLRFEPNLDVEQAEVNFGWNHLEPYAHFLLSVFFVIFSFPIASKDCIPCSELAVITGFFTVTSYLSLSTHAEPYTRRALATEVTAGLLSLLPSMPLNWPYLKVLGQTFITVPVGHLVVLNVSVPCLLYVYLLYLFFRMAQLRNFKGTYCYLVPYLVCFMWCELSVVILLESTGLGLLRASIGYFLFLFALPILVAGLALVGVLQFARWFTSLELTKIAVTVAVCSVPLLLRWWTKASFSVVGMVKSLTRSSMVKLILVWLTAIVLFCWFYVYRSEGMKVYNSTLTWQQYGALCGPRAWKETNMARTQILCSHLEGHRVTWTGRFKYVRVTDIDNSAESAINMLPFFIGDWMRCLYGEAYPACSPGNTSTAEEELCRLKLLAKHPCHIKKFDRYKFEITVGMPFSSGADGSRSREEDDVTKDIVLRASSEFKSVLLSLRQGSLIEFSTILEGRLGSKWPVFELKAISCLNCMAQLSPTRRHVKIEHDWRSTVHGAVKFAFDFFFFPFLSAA

Turning to `Cc1nc(N[C@H]2C[C@H](OCc3cc(F)c(F)c(F)c3)C2)nc2c1NC(=O)[C@H](C)N2C` [Compound 254, (7S)-4,7,8-trimethyl-2-((trans-3-((3,4,5-trifluorobenzyl)oxy)cyclobutyl)amino)-7,8-dihydropteridin-6(5H)-one], the pKi (commonly −log10 of the Ki, conventionally taken in molar units) in [1] was less than 5.40. Also, the pIC50 (in general, the negative decadic logarithm of the IC50, by convention in mol/L) in experiment [2] is greater than 6.52; in experiment [3] it was greater than 6.22; in experiment [5], 6.22 to 7.22. For the same compound, the pEC50 – broadly, −log10 of the EC50, conventionally taken in molar units – in experiment [4] is 5.70 to 6.22.
Turning to `CN1C(=O)C(C)(C)N(C)c2nc(NCc3cnn(Cc4cc(F)c(F)c(F)c4)c3)ncc21` [Compound 229, 5,7,7,8-tetramethyl-2-(((1-(3,4,5-trifluorobenzyl)-1H-pyrazol-4-yl)methyl)amino)-7,8-dihydropteridin-6(5H)-one], the pKi in experiment [1] was less than 5.40. Moreover, the negative logarithm of the IC50 (pIC50) in [2] was greater than 6.52. Moreover, the “Percent Remaining Activity at 8 hrs after Dosing” value (from here on “Percent Remaining Activity”) in experiment [6] is reported as 49%.
`C[C@H]1C(=O)Nc2cnc(NCc3cnn(Cc4cc(F)c(F)c(F)c4)c3)nc2N1C` [Compound 42, (7S)-7,8-dimethyl-2-(((1-(3,4,5-trifluorobenzyl)-1H-pyrazol-4-yl)methyl)amino)-7,8-dihydropteridin-6(5H)-one]: the pIC50 in experiment [2] was greater than 6.52. Further, in [6], the “Percent Remaining Activity” value worked out at 20%. Moreover, the inhibition in vivo at 100 mg/kg in experiment [7] came to 79.6%.
With `C/C=C(/C)C(=O)O[C@H]1C(C)=C2[C@H]([C@@H]1OC(=O)CCCCCCC)[C@@](C)(OC(C)=O)C[C@H](OC(=O)CCC)[C@@]1(O)[C@H]2OC(=O)[C@@]1(C)O` [thapsigargin, reference compound], the “effect of WFS1 depletion on induction of XBP1(s) and ATF4” value in experiment [8] is listed as “much lesser effect”. In addition, in experiment [9], the “effect of WFS1 depletion on changes in global gene expression” value was “no effect”.
With `Cc1nc(NCc2cnn(Cc3cc(F)c(F)c(F)c3)c2)nc2c1N(C)C(=O)[C@H](C)N2C` [Compound 14, (7S)-4,5,7,8-tetramethyl-2-(((1-(3,4,5-trifluorobenzyl)-1H-pyrazol-4-yl)methyl)amino)-7,8-dihydropteridin-6(5H)-one], in experiment [1], the pKi was less than 5.40. The pIC50 in experiment [2] is greater than 6.52. For the same compound, the “Percent Remaining Activity” value in experiment [6] is on record as 33%.
With `Cc1nc(NCc2cnn(Cc3ccc(F)cc3)c2)nc2c1N(C)C(=O)C1(CC1)N2C` [Compound 223, 2′-(((1-(4-fluorobenzyl)-1H-pyrazol-4-yl)methyl)amino)-4′,5′,8′-trimethyl-5′,8′-dihydro-6′H-spiro[cyclopropane-1,7′-pteridin]-6′-one], the pKi in experiment [1] was less than 5.40. In experiment [2], the pIC50 is greater than 6.52. The “Percent Remaining Activity” value in [6] amounted to 39%.
`CCN1C(=O)[C@H](C)N(CC)c2nc(NCc3cnn(Cc4ccc(F)cc4)c3)ncc21` [Compound 30, (7S)-5,8-diethyl-2-(((1-(4-fluorobenzyl)-1H-pyrazol-4-yl)methyl)amino)-7-methyl-7,8-dihydropteridin-6(5H)-one]: in experiment [1], the pKi was less than 5.40. The pIC50 in [2] was greater than 6.52.
